According to patent publication US20080317805A1, “LOCALLY ADMINISTRATED LOW DOSES OF CORTICOSTEROIDS” (priority 2007, published 2008):
“Also recorded” adds a separate entry of the source.

Tests used:
[1] = test system: rat chronic constriction injury (CCI) model; assay: Thermal paw withdrawal latency, local pump delivery, rat CCI model; format: in vivo; conditions: 0.0032, 0.016, and 0.08 ng/hour by osmotic mini-pump, perineural; p<0.05
Procedure: (§1) Thermal hyperalgesia is measured using a plantar analgesia instrument (Stoelting, Wood Dale, Ill.). Prior to testing, each animal is placed on the plantar test apparatus, a clear plastic chamber, and is allowed to rest/acclimate for 15 minutes. A radiant (heat) beam stimulus is applied to the CCI paw of each animal. After paw withdrawal, an automated control interrupts both the stimulus and the timer. The heat source device is set at intensity 50, and a maximal cut-off at 15 seconds is set to prevent tissue damage. Thermal hyperalgesia paw withdrawal latency response of the injured site (right hind paw) of each animal is measured 2 days prior to CCI surgery (pre-injury baseline) on Days 7, 14, and 21 after surgery. Data from each test is analyzed by one-way ANOVA.
Following the above experiments, the efficacy of locally administered, low dose of fluocinolone acetonide (Sigma Cat# F8880-25MG; Lot# 043K1167, Sigma Aldrich) and dexamethasone (Sigma Aldrich) is examined in the same CCI rat model. […]
Fluocinolone is administered at doses of 0.0032 ng/hour (0.02304 ng/kg/day), 0.016 ng/hour (0.1152 ng/kg/day), and 0.08 ng/hour (0.576 ng/kg/day). […] Thermal hyperalgesia, induced and measured as described above, is measured on Days −2, 7, 14, and 21. Mechanical allodynia, induced and measured as described above, is measured on Days −1, 8, 15, and 22.

[2] = test system: rat chronic constriction injury (CCI) model; assay: Von Frey mechanical threshold, local pump delivery, rat CCI model; format: in vivo; conditions: 0.0032, 0.016, 0.08 ng/hour by pump, each day tested; not statistically significant
Procedure: (§2) Mechanical allodynia is measured using von Frey monofilament test (Stoelting, Wood Dale, Ill.). The plantar surface of the CCI paw of each animal is tested as described by Chaplan et al. (1994). Each animal is placed in a suspended clear plastic chamber with a wire mesh bottom. Prior to testing, each animal is acclimated for 15 minutes. The 50% paw withdrawal threshold response is determined by sequentially increasing or decreasing the stimulus strength according to the “up-down method” of Dixon (1980).
Testing begins with a filament with a buckling weight of 2.0 g and continued through a series of filaments applied in sequence, up to about 15 g. Each filament is applied with enough pressure to cause a buckle effect. The absence of a paw lifting/withdrawal response after 5 seconds prompts the use of the filament to the next higher weight. […] The mechanical paw withdrawal threshold of each animal is measured one day prior to surgery (per-surgical baseline) and on Days 8, 15, and 22.
The 50% paw withdrawal threshold is calculated (PWT; Luo and Calcutt, 2002, Chaplan et al. 1994) using the formula 10 (Xf+?d)/10,000, where Xf is the final von Frey filament used (log units), ? is a value that analyzes the response pattern (taken from the table published by Chaplan at al., 1994), and d is the mean difference between stimuli (log units). Data is analyzed using one-way ANOVA on each test. […]

[3] = test system: rat chronic constriction injury (CCI) model; assay: Thermal hyperalgesia (paw withdrawal latency), systemically administered fluocinolone, rat CCI model; format: in vivo
Procedure: (§3) The purpose of this study is to evaluate the efficacy of fluocinolone acetonide (Sigma Cat# F8880-25MG; Sigma Aldrich, St. Louis, Mo.), a potent corticosteroid, to reduce neuropathic pain in an animal model. This animal model involves pain-associated behaviors in male Wistar rats (300-326 g) following chronic constriction injury (CCI) induced by a procedure similar to that described by Bennett and Xie (1988). Under 2% isoflurane anesthesia, the rat's common sciatic nerve is exposed and freed from adherent tissue at mid-thigh by separating the muscle (biceps femoris) by blunt dissection. Four loose ligatures are placed 1 mm apart, using chromic gut (4-0 absorbable suture, Jorgensen Laboratories, Inc. Loveland, Colo.).
(§4) After CCI induction, each group (n=7) receive treatment via systemic injection. Vehicle control animals (Group 1) receive 1× phosphate buffered solution (PBS) intraperitoneally (IP) every three days, beginning the day of surgery (Day 0), etanercept (Group 2; 3 mg/kg) is administered IP every 3 days beginning Day 0. Animals in treatment Groups 3, 4 and 5 receive fluocinolone (0.5, 5, or 25 μg/kg) subcutaneously (SC) every day beginning Day 0.
as §1

[4] = test system: rat chronic constriction injury (CCI) model; assay: Mechanical allodynia (von Frey 50% paw withdrawal threshold), systemically administered fluocinolone, rat CCI model; format: in vivo
Procedure: as §3, §4, §2
Testing begins with a filament with a buckling weight of 2.0 g and continued through a series of filaments applied in sequence, up to about 15 g. Each filament is applied with enough pressure to cause a buckle effect. The absence of a paw lifting/withdrawal response after 5 seconds prompts the use of the filament to the next higher weight. Paw withdrawal, indicates a positive response. The testing continues for four additional measurements and is used to calculate the response threshold. Four consecutive positive responses receive a score of 0.25 g, and five consecutive negative responses (i.e., no paw withdrawal) receives a score of 15 g. The mechanical paw withdrawal threshold of each animal is measured one day prior to surgery (per-surgical baseline) and on Days 8, 15, and 22.
The 50% paw withdrawal threshold is calculated (PWT; Luo and Calcutt, 2002, Chaplan et al. 1994) using the formula 10 (Xf+?d)/10,000, where Xf is the final von Frey filament used (log units), ? is a value that analyzes the response pattern (taken from the table published by Chaplan at al., 1994), and d is the mean difference between stimuli (log units). Data is analyzed using one-way ANOVA on each test.

[5] = Body weight gain during daily SC fluocinolone in CCI rats; format: in vivo, rat; conditions: for body weight difference to vehicle controls: 25 μg/kg SC daily
Procedure: as §3, §4

## CC1(C)O[C@@H]2C[C@H]3[C@@H]4C[C@H](F)C5=CC(=O)C=C[C@]5(C)[C@@]4(F)[C@@H](O)C[C@]3(C)[C@]2(C(=O)CO)O1 [Fluocinolone, fluocinolone acetonide]
[1]
  thermal paw withdrawal latency compared to PBS: increases in the thermal paw withdrawal latency tests compared to PBS
[2]
  mechanical threshold (von Frey): increases in the mechanical threshold
[3]; 0.5 μg/kg every day, Day 7
  Thermal Paw Withdrawal Latencies as Percent Baseline, Mean: 71.6 Percent Baseline
[3]; 0.5 μg/kg every day, Day 14
  Thermal Paw Withdrawal Latencies as Percent Baseline, Mean: 70.8 Percent Baseline
[3]; 0.5 μg/kg every day, Day 21
  Thermal Paw Withdrawal Latencies as Percent Baseline, Mean: 63.1 Percent Baseline
[3]; 0.5 μg/kg, Day 7, p<0.05
  thermal latency, t-test compared to etanercept: significant increase in latency on Day 7
[3]; 0.5 μg/kg, Days 14 and 21, n.s.
  thermal latency, t-test compared to etanercept: not on Days 14 and 21
[3]; 0.5 μg/kg/day, only statistically significant on Day 7
  thermal latencies compared with etanercept: tends to improve thermal latencies over etanercept
[3]; 5 μg/kg every day, Day 7
  Thermal Paw Withdrawal Latencies as Percent Baseline, Mean: 79.7 Percent Baseline
[3]; 5 μg/kg every day, Day 14
  Thermal Paw Withdrawal Latencies as Percent Baseline, Mean: 83.8 Percent Baseline
[3]; 5 μg/kg every day, Day 21
  Thermal Paw Withdrawal Latencies as Percent Baseline, Mean: 80.2 Percent Baseline
[3]; 5 μg/kg, Days 7, 14, 21, p<0.05
  thermal latency, t-test compared to etanercept: significant increase in latency on all testing days
[3]; 25 μg/kg every day, Day 7
  Thermal Paw Withdrawal Latencies as Percent Baseline, Mean: 67.4 Percent Baseline
[3]; 25 μg/kg every day, Day 14
  Thermal Paw Withdrawal Latencies as Percent Baseline, Mean: 80.9 Percent Baseline
[3]; 25 μg/kg every day, Day 21
  Thermal Paw Withdrawal Latencies as Percent Baseline, Mean: 80.0 Percent Baseline
[3]; 0.5, 5 and 25 μg/kg/day SC, Days 7, 14, 21, p<0.05
  thermal latency relative to vehicle controls: increase in thermal latency relative to vehicle controls; also recorded: significantly increases the paw withdrawal latency period; also recorded: significant increase in thermal latency
[3]; 5 and 25 μg/kg/day, all days tested, etanercept 3 mg/kg IP every 3 days, ANOVA p<0.05
  thermal hyperalgesia compared with etanercept: improves thermal hyperalgesia significantly greater than etanercept
[3]; Day 7, Fisher LSD, p<0.05
  thermal latency, 5 μg/kg dose compared with 25 μg/kg dose: significantly more effective than 25 μg/kg dose
[3]; Days 14 and 21, Fisher LSD, p<0.05
  thermal latency, 5 and 25 μg/kg doses compared with 0.5 μg/kg dose: significantly more effective than the 0.5 μg/kg dose
[4]; 0.5 μg/kg every day, Day 8
  Von Frey Filament "Allodynia" Latencies as Percent of Baseline, Mean: 45.2% of Baseline
[4]; 0.5 μg/kg every day, Day 15
  Von Frey Filament "Allodynia" Latencies as Percent of Baseline, Mean: 47.1% of Baseline
[4]; 0.5 μg/kg every day, Day 22
  Von Frey Filament "Allodynia" Latencies as Percent of Baseline, Mean: 66.2% of Baseline
[4]; 5 μg/kg every day, Day 8
  Von Frey Filament "Allodynia" Latencies as Percent of Baseline, Mean: 54.8% of Baseline
[4]; 5 μg/kg every day, Day 15
  Von Frey Filament "Allodynia" Latencies as Percent of Baseline, Mean: 57.5% of Baseline
[4]; 5 μg/kg every day, Day 22
  Von Frey Filament "Allodynia" Latencies as Percent of Baseline, Mean: 55.2% of Baseline
[4]; 25 μg/kg every day, Day 8
  Von Frey Filament "Allodynia" Latencies as Percent of Baseline, Mean: 76.3% of Baseline
[4]; 25 μg/kg every day, Day 15
  Von Frey Filament "Allodynia" Latencies as Percent of Baseline, Mean: 68.9% of Baseline
[4]; 25 μg/kg every day, Day 22
  Von Frey Filament "Allodynia" Latencies as Percent of Baseline, Mean: 70.3% of Baseline
[4]; 0.5, 5, 25 μg/kg/day, not statistically significant
  mechanical allodynia compared with etanercept: tend to improve mechanical allodynia over etanercept; also recorded: does not reveal any significant differences
[4]; 0.5, 5, or 25 μg/kg/day SC, overall ANOVA
  mechanical allodynia compared with vehicle controls: significantly improves (overall ANOVA) mechanical allodynia
[5]; 25 μg/kg SC daily for 21 days
  body weight gain compared with vehicle controls: significant decrease in body weight gain
[5]; Day 5
  body weight difference to vehicle controls: ~10 g
[5]; by Day 22
  body weight difference to vehicle controls: ~50 g
[5]; 0.5 or 5 μg/kg SC daily for 21 days
  body weight gain: does not have any effect on body weight gain
